Assay results: US11208386B2, “Inhibitors of protein arginine deiminases (PADs) and methods of preparation and use thereof” (University of Massachusetts, priority 2016, dated 2021)

What was measured:
Format in all cases: biochemical
PAD1 = target: T1, PAD1 (Homo sapiens, UniProt Q9ULC6); experiment: Inactivation kinetics, PAD1; details: for kinact/KI: a: single kobs determined, b: from a linear fit; for Fold PAD1 Selectivity: kinact/KI relative to least inhibited isozyme (1.0)
T1 construct: made in house
T1 sequence (Q9ULC6 1-663): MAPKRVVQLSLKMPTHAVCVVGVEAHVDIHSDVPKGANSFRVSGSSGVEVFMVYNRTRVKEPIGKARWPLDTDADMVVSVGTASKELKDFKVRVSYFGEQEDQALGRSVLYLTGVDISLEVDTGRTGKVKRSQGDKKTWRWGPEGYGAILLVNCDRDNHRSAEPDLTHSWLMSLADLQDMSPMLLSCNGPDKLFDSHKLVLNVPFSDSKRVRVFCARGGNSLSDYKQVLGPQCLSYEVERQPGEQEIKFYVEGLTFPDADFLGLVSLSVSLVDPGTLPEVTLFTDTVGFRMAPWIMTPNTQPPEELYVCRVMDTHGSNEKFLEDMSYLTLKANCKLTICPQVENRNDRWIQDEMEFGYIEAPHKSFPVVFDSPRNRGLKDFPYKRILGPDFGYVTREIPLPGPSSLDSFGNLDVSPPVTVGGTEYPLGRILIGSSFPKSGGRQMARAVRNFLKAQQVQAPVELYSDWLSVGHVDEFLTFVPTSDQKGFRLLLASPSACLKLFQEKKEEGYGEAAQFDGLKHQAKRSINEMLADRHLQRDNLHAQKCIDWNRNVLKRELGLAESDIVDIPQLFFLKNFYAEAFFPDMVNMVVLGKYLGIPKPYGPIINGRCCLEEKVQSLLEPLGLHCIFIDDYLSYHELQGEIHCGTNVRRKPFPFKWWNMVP
In short: (§1)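 PAD1, 2 or 4 (2.0 μM) or PAD3 (5.0 μM) preincubated at 37 °C with varying inhibitor in 50 mM HEPES, 10 mM CaCl2, 2 mM DTT, pH 7.6. Timed aliquots assayed 15 min with 10 mM BAEE (BAA for PAD3); citrulline quantified by COLDER.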

PAD3 = target: T2, PAD3 (Homo sapiens, UniProt Q9ULW8); experiment: Inactivation kinetics, PAD3; details: for kinact/KI: a: single kobs determined; for Fold PAD3 Selectivity: kinact/KI relative to least inhibited isozyme (1.0)
T2 construct: made in house
T2 sequence (Q9ULW8 1-664): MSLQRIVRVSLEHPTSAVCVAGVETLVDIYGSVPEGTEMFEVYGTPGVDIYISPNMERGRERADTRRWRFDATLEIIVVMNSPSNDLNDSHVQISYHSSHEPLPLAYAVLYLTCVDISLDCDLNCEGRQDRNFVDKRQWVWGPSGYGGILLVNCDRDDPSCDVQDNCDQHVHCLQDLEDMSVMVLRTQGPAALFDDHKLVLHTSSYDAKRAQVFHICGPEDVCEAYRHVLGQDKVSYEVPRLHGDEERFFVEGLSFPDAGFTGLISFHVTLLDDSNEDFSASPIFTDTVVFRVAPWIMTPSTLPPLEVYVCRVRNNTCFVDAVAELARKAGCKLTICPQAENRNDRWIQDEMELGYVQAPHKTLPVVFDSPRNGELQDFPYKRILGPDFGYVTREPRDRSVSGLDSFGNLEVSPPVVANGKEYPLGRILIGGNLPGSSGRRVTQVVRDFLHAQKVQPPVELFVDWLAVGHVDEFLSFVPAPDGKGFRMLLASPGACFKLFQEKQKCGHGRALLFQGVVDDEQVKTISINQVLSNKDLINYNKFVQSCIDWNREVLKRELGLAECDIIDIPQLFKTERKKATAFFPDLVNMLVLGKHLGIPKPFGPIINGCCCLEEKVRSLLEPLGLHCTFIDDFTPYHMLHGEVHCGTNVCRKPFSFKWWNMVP
In short: as §1

PAD2 = target: T3, PAD2 (Homo sapiens, UniProt Q9Y2J8); experiment: Inactivation kinetics, PAD2; details: for kinact/KI: a: single kobs determined, b: from a linear fit, other footnotes: from kinact and KI; for Fold PAD2 Selectivity: kinact/KI relative to least inhibited isozyme (1.0)
T3 construct: made in house
T3 sequence (Q9Y2J8 whole entry): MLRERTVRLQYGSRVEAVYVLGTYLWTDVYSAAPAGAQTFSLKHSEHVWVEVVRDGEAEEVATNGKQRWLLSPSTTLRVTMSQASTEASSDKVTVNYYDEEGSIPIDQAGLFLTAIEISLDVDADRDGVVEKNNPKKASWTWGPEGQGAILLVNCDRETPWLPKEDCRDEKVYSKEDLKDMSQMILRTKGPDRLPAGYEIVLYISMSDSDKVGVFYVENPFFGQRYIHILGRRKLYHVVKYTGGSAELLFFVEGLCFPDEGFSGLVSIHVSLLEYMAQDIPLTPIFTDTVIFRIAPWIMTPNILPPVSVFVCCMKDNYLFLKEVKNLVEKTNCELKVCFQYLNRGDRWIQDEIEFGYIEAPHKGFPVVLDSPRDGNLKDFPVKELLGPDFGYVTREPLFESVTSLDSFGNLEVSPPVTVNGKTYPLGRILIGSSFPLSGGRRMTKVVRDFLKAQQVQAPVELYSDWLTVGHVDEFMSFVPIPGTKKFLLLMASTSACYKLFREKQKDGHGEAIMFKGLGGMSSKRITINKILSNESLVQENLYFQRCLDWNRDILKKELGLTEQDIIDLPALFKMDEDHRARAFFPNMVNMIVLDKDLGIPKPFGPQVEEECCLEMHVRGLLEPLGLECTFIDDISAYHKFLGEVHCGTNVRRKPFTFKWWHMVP
In short: as §1

PAD4 = target: T4, PAD4 (Homo sapiens, UniProt Q9UM07); experiment: Inactivation kinetics, PAD4; details: for kinact/KI: a: single kobs determined, b: from a linear fit; for Fold PAD4 Selectivity: kinact/KI relative to least inhibited isozyme (1.0)
T4 construct: made in house
T4 sequence (Q9UM07 whole entry): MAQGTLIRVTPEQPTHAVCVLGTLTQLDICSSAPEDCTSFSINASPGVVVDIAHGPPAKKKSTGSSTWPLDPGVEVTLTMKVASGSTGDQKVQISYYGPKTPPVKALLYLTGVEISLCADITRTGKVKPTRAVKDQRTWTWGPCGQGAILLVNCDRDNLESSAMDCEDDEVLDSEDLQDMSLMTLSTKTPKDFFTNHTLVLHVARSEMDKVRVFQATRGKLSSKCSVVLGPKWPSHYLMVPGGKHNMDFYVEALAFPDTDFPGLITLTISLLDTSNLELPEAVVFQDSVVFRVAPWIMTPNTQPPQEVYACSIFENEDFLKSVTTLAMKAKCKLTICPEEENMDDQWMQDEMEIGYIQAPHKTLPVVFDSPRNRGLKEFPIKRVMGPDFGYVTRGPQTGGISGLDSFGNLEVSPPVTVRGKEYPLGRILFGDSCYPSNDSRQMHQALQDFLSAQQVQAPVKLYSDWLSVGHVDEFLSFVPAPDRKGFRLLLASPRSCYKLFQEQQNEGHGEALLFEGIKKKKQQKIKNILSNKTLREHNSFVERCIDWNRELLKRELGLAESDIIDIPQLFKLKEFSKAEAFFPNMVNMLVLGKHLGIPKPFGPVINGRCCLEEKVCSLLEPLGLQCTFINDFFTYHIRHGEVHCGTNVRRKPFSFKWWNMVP
In short: as §1

kinact/KI (PAD1) [M⁻¹ s⁻¹] | Fold PAD1 Selectivity (PAD1) [fold] | kinact/KI (PAD3) [M⁻¹ s⁻¹] | Fold PAD3 Selectivity (PAD3) [fold] | kinact/KI (PAD2) [M⁻¹ s⁻¹] | Fold PAD2 Selectivity (PAD2) [fold] | kinact/KI (PAD4) [M⁻¹ s⁻¹] | Fold PAD4 Selectivity (PAD4) [fold] | Ki (PAD2; PAD2, table footnote) [µM] | kinact (PAD2; PAD2, table footnote) [s⁻¹] | SMILES
732 | 3.5 | 241 | 1.2 | 853 | 4.1 | 207 | 1.0 | – | – | COc1cccc2c1nc([C@H](CCCNC(=N)CCl)NC(=O)c1cccc3c1C(=O)N(C(C)C)C3)n2C [Compound 8r]
253 | 28 | 24.7 | 2.7 | 630 | 70 | 9 | 1.0 | – | – | CCN1Cc2cccc(C(=O)N[C@@H](CCCNC(=N)CF)c3nc4cc(OC)ccc4n3CC)c2C1=O [Compound 8y, N1-(2-ethyl-3-oxoisoindoline)benzoyl-N5-(2-fluoro-1-iminoethyl)-1-(5-methoxy-1-ethyl-benzo[d]imidazol-2-yl)-L-ornithine]
41.2 | 2.1 | 20 | 1.0 | 40 | 2.0 | 40.5 | 2.0 | – | – | Cn1c([C@H](CCCNC(=N)CF)NC(=O)c2ccccc2C(=O)OC(C)(C)C)nc2ccccc21 [Compound 9a, N1-(2-tert-butylcarboxy)benzoyl-N5-(2-fluoro-1-iminoethyl)-1-(1-methyl-benzo[d]imidazol-2-yl)-L-ornithine]
200 | 9.3 | 78.3 | 3.6 | 152 | 7.0 | 21.7 | 1.0 | – | – | CCn1c([C@H](CCCNC(=N)CCl)NC(=O)c2ccccc2C(=O)OC(C)(C)C)nc2ccccc21 [Compound 9d, N1-(2-tert-butylcarboxy)benzoyl-N5-(2-chloro-1-iminoethyl)-1-(1-ethyl-benzo[d]imidazol-2-yl)-L-ornithine]
23.7 | 8.9 | 35 | 13 | 50.2 | 19 | 2.67 | 1.0 | – | – | CC(C)n1c([C@H](CCCNC(=N)CF)NC(=O)c2ccccc2C(=O)OC(C)(C)C)nc2ccccc21 [Compound 9e, N1-(2-tert-butylcarboxy)benzoyl-N5-(2-fluoro-1-iminoethyl)-1-(1-isopropyl-benzo[d]imidazol-2-yl)-L-omithine]

Further lines, the compound ahead of its results:

SMILES | kinact/KI (PAD1) [M⁻¹ s⁻¹] | Fold PAD1 Selectivity (PAD1) [fold] | kinact/KI (PAD3) [M⁻¹ s⁻¹] | Fold PAD3 Selectivity (PAD3) [fold] | kinact/KI (PAD2) [M⁻¹ s⁻¹] | Fold PAD2 Selectivity (PAD2) [fold] | kinact/KI (PAD4) [M⁻¹ s⁻¹] | Fold PAD4 Selectivity (PAD4) [fold] | Ki (PAD2; PAD2, table footnote) [µM] | kinact (PAD2; PAD2, table footnote) [s⁻¹]
COc1cccc2c1nc([C@H](CCCNC(=N)CF)NC(=O)c1cccc3c1C(=O)N(C1CC1)C3)n2C [Compound 8s] | 766 | 38 | 20.3 | 1.0 | 1570 | 77 | 75 | 3.8 | – | –
COc1cccc2c1nc([C@H](CCCNC(=N)CCl)NC(=O)c1cccc3c1C(=O)N(C1CC1)C3)n2C [Compound 8t] | 674 | 4.7 | 158 | 1.1 | 958 | 6.7 | 143 | 1.0 | – | –
CCN1Cc2cccc(C(=O)N[C@@H](CCCNC(=N)CF)c3nc4c(OC)cccc4n3CC)c2C1=O [Compound 8u, N1-(2-ethyl-3-oxoisoindoline)benzoyl-N5-(2-fluoro-1-iminoethyl)-1-(4-methoxy-1-ethyl-benzo[d]imidazol-2-yl)-L-ornithine] | 652 | 28 | 23.3 | 2.0 | 933 | 40 | 46.7 | 1.0 | 23.4 | 0.0218
CCN1Cc2cccc(C(=O)N[C@@H](CCCNC(=N)CCl)c3nc4c(OC)cccc4n3CC)c2C1=O [Compound 8v, N1-(2-ethyl-3-oxoisoindoline)benzoyl-N5-(2-chloro-1-iminoethyl)-1-(4-methoxy-1-ethyl-benzo[d]imidazol-2-yl)-L-ornithine] | 907 | 31 | 99.5 | 3.4 | 776 | 27 | 29.2 | 1.0 | – | –
CCN1Cc2cccc(C(=O)N[C@@H](CCCNC(=N)CF)c3nc4cc(OC)ccc4[nH]3)c2C1=O [Compound 8w, N1-(2-ethyl-3-oxoisoindoline)benzol-N5-(2-fluoro-1-iminoethyl)-1-(5-methoxy-1H-benzo[d]imidazol-2-yl)-L-ornithine] | 156 | 4.4 | 127 | 3.6 | 226 | 6.3 | 35.7 | 1.0 | – | –
CCN1Cc2cccc(C(=O)N[C@@H](CCCNC(=N)CCl)c3nc4cc(OC)ccc4[nH]3)c2C1=O [Compound 8x, N1-(2-ethyl-3-oxoisoindoline)benzoyl-N5-(2-chloro-1-iminoethyl)-1-(5-methoxy-1H-benzo[d]imidazol-2-yl)-L-ornithine] | 504 | 7.8 | 267 | 4.1 | 590 | 9.1 | 64.8 | 1.0 | – | –
CCN1Cc2cccc(C(=O)N[C@@H](CCCNC(=N)CCl)c3nc4cc(OC)ccc4n3CC)c2C1=O [Compound 8z, N1-(2-ethyl-3-oxoisoindoline)benzoyl-N5-(2-chloro-1-iminoethyl)-1-(5-methoxy-1-ethyl-benzo[d]imidazol-2-yl)-L-ornithine] | 501 | 21 | 198 | 8.4 | 637 | 27 | 23.5 | 1.0 | – | –
Cn1c([C@H](CCCNC(=N)CCl)NC(=O)c2ccccc2C(=O)OC(C)(C)C)nc2ccccc21 [Compound 9b, N1-(2-tert-butylcarboxy)benzol-N5-(2-chloro-1-iminoethyl)-1-(1-methyl-benzo[d]imidazol-2-yl)-L-ornithine] | 325 | 5.9 | 86.7 | 1.6 | 55.2 | 1.0 | 64.2 | 1.2 | – | –
CCn1c([C@H](CCCNC(=N)CF)NC(=O)c2ccccc2C(=O)OC(C)(C)C)nc2ccccc21 [Compound 9c, N1-(2-tert-butylcarboxy)benzoyl-N5-(2-fluoro-1-iminoethyl)-1-(1-ethyl-benzo[d]imidazol-2-yl)-L-ornithine] | 15.8 | 2.2 | 51.7 | 7.0 | 102 | 14 | 7.33 | 1.0 | – | –
